From patent US7807617B2, “Peptide inhibitors of toxins derived from LL-37” (priority 2003, dated 2010)
Several values for one entry are separate records, joined by “and”; a condition that tells them apart may be missing. Equal entries are not always repeated.

What was measured:
Skin irritation test = type: in vivo, rabbit; details: 0.5 ml peptide solution 2 mg/ml on clipped skin for 4 hours, semi-occlusive; observed 1-72 hours
Method: (§1) Compound P60.4Ac was prepared according to example 1 and tested for its tolerability in vivo. More specifically, its potential for causing skin and eye irritation was evaluated in rabbits, whereas its ototoxicity was studied in a guinea pig model. Furthermore, its systemic toxicity was assessed after intravenous administration.
(§2) For the skin and eye irritation tests, three rabbits were exposed to 0.5 ml phosphate buffered peptide solution (2 mg/ml), applied onto clipped skin for 4 hours using a semi-occlusive dressing. Observations were made 1, 24, 48, and 72 hours after exposure. Single samples of 0.1 ml of phosphate buffered (pH7.5) peptide solution (2 mg/ml) were instilled into one eye of each of three rabbits to perform an acute eye irritation/corrosion study. Observations were made 1, 24, 48, and 72 hours after instillation.

[1] = Acute eye irritation/corrosion study; type: in vivo, rabbit; details: 0.1 ml peptide solution 2 mg/ml (pH7.5) instilled into one eye
Method: as §1, §2

[2] = Systemic single and repeated dose toxicity, intravenous; type: in vivo, rat; details: rats
Method: as §1
The systemic toxicity of P60.4Ac was assessed in a single and repeated dose toxicity study in rats. The peptide was administered daily intravenously in escalating doses. In this phase, the Maximum Tolerated Dose (MTD) was established. Repeated dose toxicity was also studied in the MTD phase. In the dose escalation phase, 9 rats were divided in three groups and received 0.4, 2 or 8 mg/kg/day for two days. Clinical signs were recorded twice daily on days of dosing and one day after dosing, body weights were recorded prior to the first dose and one day after dosing. In the MTD phase, 5 female and 5 male rats received 8 mg/kg/day for 5 following days. Clinical signs were recorded twice daily on days of dosing, body weight on day 1 and 6. Clinical laboratory investigations were performed prior to necropsy. Macroscopy was performed at termination of the MTD phase.

[3] = Ototoxicity, auditory brainstem response (ABR) after round window membrane application; type: in vivo, guinea pig; details: for Δ presurgery (ABR threshold change) / ABR treshold (dB): cisplatin 0.66 mg/ml in PBS, P60.4Ac 2 mg/ml in phosphate buffer; for ABR treshold (dB): round window membrane
Method: For evaluating the ototoxicity, nine healthy male albino guinea pigs (500-1200 g), free of external ear pathology, were used. Animals were anesthetized with intraperitoneal injections of ketamine 40 mg/kg and rompun 10 mg/kg. After control auditory testing was performed, the auditory bullae were surgically opened to apply a small piece of spongostan to the round window membrane (RWM) and various solutions (approximately 10 μL) were added on the spongostan. The skin was sutured closed and follow-up auditory testing was performed.
The guinea pigs were divided into three groups, each consisting of two animals to be treated and one control animal. Test and control formulations were administered onto the RWM of the right ears, while the left ears remained untreated. […] Group 2 received the peptide (2 mg/ml) in phosphate buffer (pH7.5) and group 3 received the peptide (2 mg/ml) in formulation solution comprising 7% macrogol 10,000 in isotonic sodium chloride solution preserved with 0.02% benzalkonium chloride and 0.1% Na2EDTA, buffered at pH 5.5 with phosphate.
Auditory brainstem response (ABR) was performed prior to drug administration and directly after surgery and 3, 7, 14 and 22 days later, using a computer-based signal averaging system (Tucker-Davis Technology, Alucha, Fla., USA). Guinea pigs were anesthetized and an insert earphone was placed into the external ear canal. […] Ground electrodes were placed over the neck muscles. ABRs were recorded in an electrically shielded, double-walled, radio-frequency-shielded sound chambre in response to 10 ms tone bursts at 1 kHz. Stimulus intensities were measured and expressed as dB. ABR treshold was defined as the lowest intensity capable of eliciting a replicable, visually detectable response. The post-treatment ABR tresholds were compared to pre-treatment ABR tresholds.

lipoteichoic acid (LTA) = assay: LTA neutralization, whole blood (WB) assay; type: cell-based; details: ±SD, n = 3
Method: (§3) Compounds prepared according to example 1 were tested for their capability to neutralize the bacterial toxin LPS with a limulus amoebocyte lysate (LAL) assay and with a whole blood (WB) assay. LTA neutralization was also measured with a whole blood assay. Peptide LL-37 was used as a positive control. The peptide concentration whereby 50% LPS is neutralized (50% inhibition) was used as a measure of the peptide's activity. These concentration values were as in table 1. The differences between the compounds within each assay were not statistically significant.

bacterial toxin LPS [4] = assay: LPS neutralization, limulus amoebocyte lysate (LAL) assay; type: biochemical; details: ±SD; for 50%-LPS inhibition, Average: average of LAL-assay and WB-assay
Method: as §3

bacterial toxin LPS [5] = assay: LPS neutralization, whole blood (WB) assay; type: cell-based; details: ±SD
Method: as §3

[6] = test system: peripheral blood mononuclear cells (PBMC); assay: γ-IFN Elispot assay (cytokine secretion); type: cell-based; details: for γ-IFN Elispot: fraction of positive stimulation indices (positive: >2), PBMC, 48 hours of culture
Method: (§4) The compounds prepared according to example 1 were tested for their therapeutically undesirable immunogenic activity by using Elispot, T-cell proliferation, ERK-activation, and neutrophil chemotaxis assays. The Elispot assay is applicable to determine effects of drugs, chemicals or other compounds on cytokine secretion in vitro, thereby providing data on their putative modulatory effects on immune function in vivo. The results of the assay are given as fraction of positive responses to IFN-gamma. […] Cytokines are direct mediators of inflammation and influence the progress and direction of many immunological reactions. Perturbation of the balance in cytokine production is widely recognized as a critical factor in several disease states. This balance is already disturbed in the case of conditions such as otitis media with effusion and sinusitis. T cell proliferation is also not favorable in this situation, because this will also stimulate the immune response that is already out of control.
(§5) For T cell proliferation, 150,000 peripheral blood mononuclear cells (PBMC) were cultured in the absence or presence of 10 μg/ml of the compounds for 5 days in 96 well round bottom plates (Costar Inc. Cambridge, Mass.) in a final volume of 150 μl IMDM complete. As a positive control, PBMC were cultured in the presence of 25 U/ml recombinant IL-2. During the final 20 hours of culture, PBMC were pulsed with [3H] thymidine (0.5 microCi/well), after which ^3H-incorporation was measured by liquid scintillation counting. For detection of the T cell cytokines IFN and IL-10 by Elispot analysis, 1.5×10^6 PBMC were cultured in 0.5 ml IMDM complete in the absence or presence of various concentrations of synthetic peptide. As a positive control PBMC were stimulated by 10 μg/ml poke weed mitogen (PWM). After 48 hours of culture, PBMC were harvested by gently rinsing the wells with warm IMDM to collect non-adherent cells, which were washed in a large volume of IMDM. PBMC were subsequently plated on antibody-precoated ELISA plates and cultured for 5 hours in IMDM supplemented with 2% pooled human AB serum at 37° C. 5% CO2, after which the plates were developed according to the manufacturer's protocol (U-CyTech, Utrecht, The Netherlands). Spots were counted on an Olympus microscope and analyzed with Olympus Micro Image 4.0 software (Paes Nederland, Zoeterwoude, The Netherlands). The final results are expressed as fraction of positive stimulation indices (positiv: >2).

[7] = test system: peripheral blood mononuclear cells (PBMC); assay: T cell proliferation ([3H] thymidine incorporation); type: cell-based; details: fraction of positive stimulation indices (positive: >2), 10 μg/ml, 5 days
Method: as §4, §5

[8] = test system: neutrophils isolated from peripheral blood; assay: Neutrophil chemotaxis, modified Boyden chamber; type: cell-based; details: percentage neutrophils on the membrane compared to positive control 10^-8 M FMLP; 90 minutes
Method: Neutrophils chemotaxis was measured with neutrophils isolated from peripheral blood using Percoll density centrifugation (density: 1.082 g/ml). The cells were resuspended at a concentration of 2.5×10^6 cells/ml in chemotaxis medium (20 mM N-2-hydroxyethylpiperazine-N′-2-ethanesulfonic acid (HEPES buffer) HEPES, 132 mM NaCl, 6 mM KCl, 1.2 mM KH2PO4, 1 mM MgSO4, 5.5 mM glucose, 0.1 mM CaCl2 and 0.5% (wt/vol) human serum albumin [Central Laboratory of the Netherlands Red Cross Blood Transfusion Service (CLB), Amsterdam, The Netherlands] diluted 1:1 with serum-free RPMI. The chemotactic activity of the compounds was assessed using a modified Boyden Camber technique. Briefly, 26 μl stimuli diluted in HEPES buffer was added to the wells of the lower compartment, and 50 μl of neutrophil suspension (2.5×10^6 cells/ml) was added to the upper compartment. The compartments were separated by two filters: a lower filter with a pore size of 0.45 μm (Millipore Products, Bedford, Mass.) and an upper filter with a pore size of 8 μm (Sartorius Filter, San Francisco, Calif.). After incubation for 90 minutes at 37° C., the upper filters were removed, fixed in ethanol-butanol (80:20, vol/vol), and stained with Weigert solution. To determine neutrophil chemotactic activity, neutrophils were counted in six random high-power fields (×400), and the percentage neutrophils on the membrane as compared to the positive control (10^-8 M N-formylmethionyl-leucyl-phenylalanine (FMLP, Sigma) was calculated.

[9] = i.v. 0.4, 2 or 8 mg/kg/day for two days

Substance	50%-LTA inh. (lipoteichoic acid (LTA)) [µg/mL]	50%-LPS inhibition, LAL-assay (bacterial toxin LPS [4]) [µg/mL]	50%-LPS inhibition, Average (bacterial toxin LPS [4]) [µg/mL]	50%-LPS inhibition, WB-assay (bacterial toxin LPS [5]) [µg/mL]	γ-IFN Elispot [6]	T cell proliferation [7]	Chemotaxis (%) [8] [%]	other results
Ac-IGKEFKRIVERIKRFLRELVRPLR-NH2 [Compound P60.4Ac]								skin irritation (Skin irritation test): no skin irritation was detectable; redness of the conjunctivae, time to complete resolution after instillation [1]: ≤ 24 h; clinical signs, body weight, hematology, clinical biochemistry and macroscopic examination, MTD phase ([2]; i.v. 8 mg/kg/day for 5 days): no clear peptide related findings; mortality, MTD phase ([2]; i.v. 8 mg/kg/day for 5 days): no mortality occurred; clinical signs and body weight, dose escalation phase [2, 9]: no clear deviations; mortality, dose escalation phase [2, 9]: no mortality occurred; Δ presurgery (ABR threshold change) ([3]; 3 days): −2 dB; ABR treshold (dB) ([3]; 3 days): 70 dB; Δ presurgery (ABR threshold change) ([3]; 7 days): 0 dB; ABR treshold (dB) ([3]; 7 days): 72 dB; Δ presurgery (ABR threshold change) ([3]; 14 days): −12 dB; ABR treshold (dB) ([3]; 14 days): 60 dB; Δ presurgery (ABR threshold change) ([3]; 22 days after surgery): −7 dB; ABR treshold (dB) ([3]; 22 days): 65 dB; ABR threshold change ([3]; peptide 2 mg/ml in formulation solution (7% macrogol 10,000, isotonic NaCl, benzalkonium chloride, Na2EDTA, pH 5.5), two animals): 2 dB and 1 dB; Δ presurgery (ABR threshold change) ([3]; postsurgery): −2 dB; ABR treshold (dB) ([3]; postsurgery, 1 kHz, one animal per column): 70 dB
IGKEFKRIVERIKRFLRELVRPLR [Compound P60.4]	2.0 ± 1.3	1.7 ± 0.6	1.8 ± 0.6	2.1 ± 0.6	3/8	0/8	0 ± 0	immune response (summary of table 2) ([6]; compared with natural peptide LL-37): very low immune response
IGKEFKRIVQRIKDFLRNLVPRTE [Compound P60.Ac]	2.1 ± 0.1	1.8 ± 0.8	2.0 ± 0.8	2.4 ± 0.5	3/8	0/8	61 ± 36	
IGKEFKRIVQRIKDFLRNLVPRTE [Compound P60]	2.1 ± 0.7	1.5 ± 0.5	1.5 ± 0.3	1.4 ± 0.1	1/8	0/8	76 ± 39	
LL-37 [reference compound]	1.6 ± 0.5	1.3 ± 0.2	1.3 ± 0.2	1.2 ± 0.2	4/8	4/8	84 ± 17	
